According to the supplement of paper PMC11061612:

Columns and labels:
Paclitaxel = compound: CC(=O)O[C@H]1C(=O)[C@@]2(C)[C@H]([C@H](OC(=O)c3ccccc3)[C@]3(O)C[C@H](OC(=O)[C@H](O)[C@@H](NC(=O)c4ccccc4)c4ccccc4)C(C)=C1C3(C)C)[C@]1(OC(C)=O)CO[C@@H]1C[C@@H]2O [Paclitaxel]; conditions: max 3 µM
Outline: (§1)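 In 1536-well plates, cancer cell lines in 7.5 μl DMEM/F12 or RPMI with 10% FBS spent 24 hours at 37°C and 5% CO2 and were then dosed for 72 hours with final DMSO typically 0.2%. Viability was read by CellTiter-Glo 2.0 luminescence and scaled between blank-well and DMSO-well means. The single-agent IC50 was fitted from dose responses using a logistic curve in a non-linear mixed effects model, and that logistic curve had two parameters.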

Doxorubicin = compound: COc1cccc2c1C(=O)c1c(O)c3c(c(O)c1C2=O)C[C@@](O)(C(=O)CO)C[C@@H]3O[C@H]1C[C@H](N)[C@H](O)[C@H](C)O1 [Doxorubicin]; conditions: max 1 µM
Outline: as §1

5-Fluorouracil = compound: O=c1[nH]cc(F)c(=O)[nH]1 [5-Fluorouracil]; conditions: max 20 µM
Outline: as §1

AZD6738 = compound: C[C@@H]1COCCN1C2=NC(=NC(=C2)C3(CC3)[S@](=N)(=O)C)C4=C5C=CNC5=NC=C4 [AZD6738]; conditions: max 10 µM
Outline: as §1

AZD0156 = compound: CN(C)CCCOc1ccc(-c2ccc3ncc4c(c3c2)n(C2CCOCC2)c(=O)n4C)cn1 [AZD0156]; conditions: max 3 µM
Outline: as §1

AZD5153 = compound: COc1nnc2ccc(N3CCC(c4ccc(OCCN5CCN(C)C(=O)[C@H]5C)cc4)CC3)nn12 [AZD5153]; conditions: max 1 µM
Outline: as §1

AZD5991 = compound: Cc1c2c(nn1C)CSCc1cc(n(C)n1)CSc1cc(c3ccccc3c1)OCCCc1c(C(=O)O)n(C)c3c-2c(Cl)ccc13 [AZD5991]; conditions: max 1 µM
Outline: as §1

Crizotinib = compound: C[C@@H](Oc1cc(-c2cnn(C3CCNCC3)c2)cnc1N)c1c(Cl)ccc(F)c1Cl [Crizotinib]; conditions: max 10 µM
Outline: as §1

Gefitinib = compound: COc1cc2ncnc(Nc3ccc(F)c(Cl)c3)c2cc1OCCCN1CCOCC1 [Gefitinib]; conditions: max 10 µM
Outline: as §1

Venetoclax = compound: CC1(C)CCC(CN2CCN(c3ccc(C(=O)NS(=O)(=O)c4ccc(NCC5CCOCC5)c([N+](=O)[O-])c4)c(Oc4cnc5[nH]ccc5c4)c3)CC2)=C(c2ccc(Cl)cc2)C1 [Venetoclax]; conditions: max 1 µM
Outline: as §1

[1] = compound: O=C(Nc1ccc2[nH]nc(-c3ccncc3)c2c1)[C@@H]1CCN(CC(=O)N2CCN(c3ccc(-c4ncccn4)cc3)CC2)C1; conditions: max 5 µM
Outline: as §1

AZD5363 = compound: C1CN(CCC1(C(=O)N[C@@H](CCO)C2=CC=C(C=C2)Cl)N)C3=NC=NC4=C3C=CN4 [AZD5363]; conditions: max 10 µM
Outline: as §1

AZD2811 = compound: CCN(CCO)CCCOc1ccc2c(Nc3cc(CC(=O)Nc4cccc(F)c4)[nH]n3)ncnc2c1 [AZD2811]; conditions: max 1 µM
Outline: as §1

Alisertib = compound: COc1cc(Nc2ncc3c(n2)-c2ccc(Cl)cc2C(c2c(F)cccc2OC)=NC3)ccc1C(=O)O [Alisertib]; conditions: max 10 µM
Outline: as §1

AZD7648 = compound: Cc1cc2ncnn2cc1Nc1ncc2c(n1)n(C1CCOCC1)c(=O)n2C [AZD7648]; conditions: max 10 µM
Outline: as §1

Prexasertib = compound: COc1cccc(OCCCN)c1-c1cc(Nc2cnc(C#N)cn2)n[nH]1 [Prexasertib]; conditions: max 1 µM
Outline: as §1

Gemcitabine = compound: Nc1ccn([C@@H]2O[C@H](CO)[C@@H](O)C2(F)F)c(=O)n1 [Gemcitabine]; conditions: max 0.3 µM
Outline: as §1

SRA737 = compound: N#Cc1cnc(Nc2cc(NC[C@H]3CNCCO3)c(C(F)(F)F)cn2)cn1 [SRA737]; conditions: max 10 µM
Outline: as §1

AZD1390 = compound: CC(C)n1c(=O)n(C)c2cnc3cc(F)c(-c4ccc(OCCCN5CCCCC5)nc4)cc3c21 [AZD1390]; conditions: max 0.3 µM
Outline: as §1

Etoposide = compound: COc1cc([C@@H]2c3cc4c(cc3[C@@H](O[C@@H]3O[C@@H]5CO[C@@H](C)O[C@H]5[C@H](O)[C@H]3O)[C@H]3COC(=O)[C@H]23)OCO4)cc(OC)c1O [Etoposide]; conditions: max 10 µM
Outline: as §1

Selumetinib = compound: Cn1cnc2c(F)c(Nc3ccc(Br)cc3Cl)c(C(=O)NOCCO)cc21 [Selumetinib]; conditions: max 10 µM
Outline: as §1

Olaparib = compound: O=C(c1cc(Cc2n[nH]c(=O)c3ccccc23)ccc1F)N1CCN(C(=O)C2CC2)CC1 [Olaparib]; conditions: max 10 µM
Outline: as §1

AZD8186 = compound: C[C@@H](Nc1cc(F)cc(F)c1)c1cc(C(=O)N(C)C)cc2c(=O)cc(N3CCOCC3)oc12 [AZD8186]; conditions: max 10 µM
Outline: as §1

SN-38 = compound: CCc1c2c(nc3ccc(O)cc13)-c1cc3c(c(=O)n1C2)COC(=O)[C@]3(O)CC [SN-38]; conditions: max 0.3 µM
Outline: as §1

Dasatinib = compound: CC1=C(C(=CC=C1)Cl)NC(=O)C2=CN=C(S2)NC3=CC(=NC(=N3)C)N4CCN(CC4)CCO [Dasatinib]; conditions: max 2 µM
Outline: as §1

MK-2206 = compound: NC1(c2ccc(-c3nc4ccn5c(=O)[nH]nc5c4cc3-c3ccccc3)cc2)CCC1 [MK-2206]; conditions: max 10 µM
Outline: as §1

Palbociclib = compound: CC(=O)c1c(C)c2cnc(Nc3ccc(N4CCNCC4)cn3)nc2n(C2CCCC2)c1=O [Palbociclib]; conditions: max 10 µM
Outline: as §1

Carboplatin = compound: C1CC(C1)(C(=O)[O-])C(=O)[O-].N.N.[Pt+2] [Carboplatin]; conditions: max 10 µM
Outline: as §1

Trametinib = compound: CC(=O)Nc1cccc(-n2c(=O)n(C3CC3)c(=O)c3c(Nc4ccc(I)cc4F)n(C)c(=O)c(C)c32)c1 [Trametinib]; conditions: max 1 µM
Outline: as §1

Savolitinib = compound: C[C@@H](c1ccc2nccn2c1)n1nnc2ncc(-c3cnn(C)c3)nc21 [Savolitinib]; conditions: max 1 µM
Outline: as §1

Lapatinib = compound: CS(=O)(=O)CCNCc1ccc(-c2ccc3ncnc(Nc4ccc(OCc5cccc(F)c5)c(Cl)c4)c3c2)o1 [Lapatinib]; conditions: max 10 µM
Outline: as §1

AZD1775 = compound: C=CCn1c(=O)c2cnc(Nc3ccc(N4CCN(C)CC4)cc3)nc2n1-c1cccc(C(C)(C)O)n1 [AZD1775]; conditions: max 3 µM
Outline: as §1

SG3199 = compound: CC1=CN2[C@@H](C1)C=NC3=CC(=C(C=C3C2=O)OC)OCCCCCOC4=C(C=C5C(=C4)N=C[C@@H]6CC(=CN6C5=O)C)OC [SG3199]; conditions: max 0.001 µM
Outline: as §1

Taselisib = compound: Cc1nc(-c2cn3c(n2)-c2ccc(-c4cnn(C(C)(C)C(N)=O)c4)cc2OCC3)n(C(C)C)n1 [Taselisib]; conditions: max 10 µM
Outline: as §1

AZD4320 = compound: CN(CC[C@H](CSC1=CC=CC=C1)NC2=C(C=C(C=C2)S(=O)(=O)NC(=O)C3=CC=C(C=C3)N4CCC(CC4)[C@H](C5=CC=CC=C5C6=CC=C(C=C6)Cl)O)S(=O)(=O)C(F)(F)F)CCO [AZD4320]; conditions: max 1 µM
Outline: as §1

Cell Line | IC50, cell viability 72 h (Paclitaxel) [nM] | IC50, cell viability 72 h (Doxorubicin) [nM] | IC50, cell viability 72 h (5-Fluorouracil) [nM] | IC50, cell viability 72 h (AZD6738) [nM] | IC50, cell viability 72 h (AZD0156) [nM] | IC50, cell viability 72 h (AZD5153) [nM] | IC50, cell viability 72 h (AZD5991) [nM] | IC50, cell viability 72 h (Crizotinib) [nM] | IC50, cell viability 72 h (Gefitinib) [nM] | IC50, cell viability 72 h (Venetoclax) [nM] | IC50, cell viability 72 h [1] [nM] | IC50, cell viability 72 h (AZD5363) [nM] | IC50, cell viability 72 h (AZD2811) [nM] | IC50, cell viability 72 h (Alisertib) [nM] | IC50, cell viability 72 h (AZD7648) [nM] | IC50, cell viability 72 h (Prexasertib) [nM] | IC50, cell viability 72 h (Gemcitabine) [nM] | IC50, cell viability 72 h (SRA737) [nM] | IC50, cell viability 72 h (AZD1390) [nM] | IC50, cell viability 72 h (Etoposide) [nM] | IC50, cell viability 72 h (Selumetinib) [nM] | IC50, cell viability 72 h (Olaparib) [nM] | IC50, cell viability 72 h (AZD8186) [nM] | IC50, cell viability 72 h (SN-38) [nM] | IC50, cell viability 72 h (Dasatinib) [nM] | IC50, cell viability 72 h (MK-2206) [nM] | IC50, cell viability 72 h (Palbociclib) [nM] | IC50, cell viability 72 h (Carboplatin) [nM] | IC50, cell viability 72 h (Trametinib) [nM] | IC50, cell viability 72 h (Savolitinib) [nM] | IC50, cell viability 72 h (Lapatinib) [nM] | IC50, cell viability 72 h (AZD1775) [nM] | IC50, cell viability 72 h (SG3199) [nM] | IC50, cell viability 72 h (Taselisib) [nM] | IC50, cell viability 72 h (AZD4320) [nM]
CAL-62 (Thyroid Gland Carcinoma) | 7.33 | 372 | > 20000 | 5210 | > 3000 | 127 | > 1000 | > 10000 | > 10000 | > 1000 | 4090 | > 10000 | > 1000 | > 10000 | > 10000 | 158 | 35.5 | > 10000 | > 300 | 3420 | > 10000 | > 10000 | > 10000 | 4.59 | 784 | > 10000 | > 10000 | > 10000 | 551 | > 1000 | > 10000 | 1320 | > 1 | > 10000 | > 1000
COLO-680N (Esophageal Squamous Cell Carcinoma) | 1300 | > 1000 | > 20000 | > 10000 | > 3000 | > 1000 | > 1000 | > 10000 | > 10000 | > 1000 | > 5000 | > 10000 | > 1000 | > 10000 | > 10000 | > 1000 | > 300 | > 10000 | > 300 | > 10000 | > 10000 | > 10000 | > 10000 | > 300 | > 2000 | > 10000 | > 10000 | > 10000 | > 1000 | > 1000 | > 10000 | > 3000 | > 1 | > 10000 | > 1000
HSC-39 (Gastric Carcinoma) | 4.55 | 160 | 16600 | 538 | > 3000 | 322 | 55.6 | 2060 | > 10000 | 561 | 2880 | > 10000 | 150 | < 10 | > 10000 | 4.86 | 11.7 | 519 | > 300 | 1230 | > 10000 | > 10000 | > 10000 | 7.39 | > 2000 | > 10000 | 4370 | > 10000 | 423 | > 1000 | 5620 | 398 | > 1 | 791 | > 1000
IST-MES1 (Mesothelioma) | 504 | 430 | > 20000 | > 10000 | > 3000 | 246 | > 1000 | > 10000 | > 10000 | > 1000 | > 5000 | > 10000 | > 1000 | > 10000 | > 10000 | > 1000 | 181 | > 10000 | > 300 | > 10000 | > 10000 | > 10000 | > 10000 | 61.4 | 243 | > 10000 | > 10000 | > 10000 | > 1000 | > 1000 | > 10000 | > 3000 | > 1 | > 10000 | > 1000
L-1236 (Hodgkin's Lymphoma) | 36.2 | > 1000 | > 20000 | 3960 | > 3000 | 13.2 | > 1000 | 1940 | > 10000 | 861 | > 5000 | 2810 | > 1000 | > 10000 | > 10000 | 32.7 | 17.7 | 969 | > 300 | 3350 | > 10000 | > 10000 | 2080 | 62.4 | > 2000 | 8400 | 6340 | > 10000 | > 1000 | > 1000 | > 10000 | 85.4 | > 1 | 9380 | 89.5
